Paper PMC11989239, “Structure–Property Relationships in Novel Series of Photoswitchable Local Anesthetic Ethercaine Derivatives: Emphasis on Biological and Photophysical Properties” (International Journal of Molecular Sciences, 2025)
pIC50: −log10 of the molar value. Structures can show the parent of a compound that is named as a salt.

Key:
[1] = In vitro cytotoxicity, MTT test, 24 h incubation; format: cell-based, human; details: human, dermal fibroblast cells (DF2), DF2 fibroblasts
Method: (§1) The culture of dermal fibroblast cells (DF2) was obtained from the collection of the Institute of Cytology of the Russian Academy of Sciences (Saint Petersburg, Russia). The cells were cultured in plastic vials with a cell growth surface of 25 cm^2 (Costar, Richmond, VA, USA) on DMEM/F12 medium with the addition of L-glutamine and 10% fetal bovine serum (FBS) (PanEco, Moscow, Russia). The cells were cultured at 37 °C in a humid atmosphere with a content of 5% CO2 (Binder CO2 incubator, Germany). Cell lines from 3 to 7 passages were used in the work. To conduct experiments to evaluate the cytotoxicity of compounds, cells were sieved into 96-well culture plates at a concentration of 10^5 cells per ml, incubated at 37 °C (humidified atmosphere, 5% carbon dioxide) for 24–28 h. Further, 50 µL of the studied substances was added. The cells were incubated with the compounds for 24 h at 37 °C. Next, the cytotoxic effect of the substances was evaluated by a colorimetric method using an MTT test and visually, using an inverted microscope. The criterion for evaluating the specific activity of the compound was the value of IC50, the concentration at which 50% death of culture cells was noted.

[2] = Z-E isomerization half-life by UV/Vis spectrophotometry after 365 nm irradiation; format: physicochemical; details: for τ1/2 (DMSO), Z-E isomerization half-life: RT, after 365 nm 5 min; for τ1/2 (Aqueous Kolliphor ELP), Z-E isomerization half-life: aqueous 4% Kolliphor ELP solution
Method: As one of the main physicochemical properties of photopharmacological agents, the Z-E half-life was investigated, which determines the stability of the Z-isomer. The Z-E half-lifes were measured using UV/Vis spectrophotometry, converting the compound to the Z-isomer by irradiating with UV light and observing the change in absorption intensity due to reverse Z-E relaxation.
Z-E isomerization half-life was determined using UV/Vis spectroscopy. Solutions were prepared and kept in the dark at RT before the experiment. First, the spectrum in the dark was registered ( PSSdark) , which corresponds to the photostationary state (PSS) with E-isomer predominance. Then, the cuvette with the solution was irradiated with UV light (λ = 365 nm) for 5 min to give the PSS with Z-isomer predominance. The corresponding spectrum was registered ( PSS365nm) . During the subsequent isomerization, the kinetics of changes in the absorption value were recorded at the wavelength of the absorption maximum corresponding to the E-isomer ( λmax(E)) . Then, lnAt/A0 values were calculated using the Equation (1):(1) lnAt/A0=lnAbsPSS(dark)−Abstime/AbsPSS(dark)−AbsPSS(365nm), where AbsPSS(dark) , AbsPSS(365nm), and Abstime are absorbance values at λmax(E) in the dark at the beginning of the experiment, after UV light (λ = 365 nm) irradiation, and at different time points from 0 to 60 min, respectively. Then, a graph was plotted depending on lnAt/A0 values from time, the trend line was calculated, and a first-order rate constant (k) for the thermal back Z-E isomerization reaction was obtained as the slope of the trend line.
For a first-order reaction, half-life t1/2 can be calculated using the Equation (2):(2) t1/2=ln2/k

rabbit eye cornea = test: Surface anesthesia on the rabbit cornea, Regnier method (Regnier index); format: in vivo; details: for Local Anesthetic Activity (Regnier Index, Min—13, Max—1300) In the Dark / Local Anesthetic Activity (Regnier Index, Min—13, Max—1300) Under Irradiation (λ = 365 nm): 1% solution, 0.2 mL instilled, mean ± SD; for Local Anesthetic Activity (Regnier Index, Min—13, Max—1300) In the Dark: in the dark (E-form predominance); for Local Anesthetic Activity (Regnier Index, Min—13, Max—1300) Under Irradiation (λ = 365 nm): solution irradiated with UV 365 nm (Z-form predominance)
Method: Thus, the main biological property investigated in this work was the local anesthetic activity of the new derivatives in the dark (with a predominance of the E-form) and under irradiation (with a predominance of the Z-form). The evaluation of local anesthetic activity was conducted on the rabbit cornea using the Regnier method. […] RI values in darkness (451 ± 40) and under UV light irradiation (469 ± 37) for a 2% solution of lidocaine, used as a reference drug, were obtained previously and are independent of light exposure. A 4% aqueous solution of Kolliphor® ELP, used for solubilizing ethercaine and its derivatives and lacking intrinsic local anesthetic activity, was employed as a negative control. In vitro cytotoxicity studies were conducted to initially assess the safety of the compounds.
Non-anesthetized, mature male rabbits of a Soviet chinchilla breed weighing 2–3 kg, obtained from the KrolInfo farm (Orekhovo-Zuyevo, Russia), were used in this study. Animals were kept under standard conditions (humidity 50–60%, temperature 19–22 °C). A 12-h lighting cycle was maintained. Each animal was kept in a separate cage. Animals had ad libitum access to standard extruded feed “CHARA” (CJSC “Assortiment-Agro”, Turakovo Village, Moscow region, Russia) and clean drinking water. Water treatment was performed using a “7 TECHNOCOM” block modular system (LLC “7 TECH”, Moscow, Russia). For in vivo, surface anesthesia measurements, an in-house-made anesthesiometer with a fixed length of a nylon filament (l = 1.0 cm, d = 0.125 mm) was used. Statistical analysis was performed, and figures were plotted using the Python programming language’s standard functions and a Matplotlib package (Version 3.8) for Python. All biological data conformed to a normal distribution (Shapiro–Wilk’s W test, p > 0.05). All data are expressed as the mean ± standard deviation.
For determination of the rabbit eye cornea’s sensitivity using the surface anesthesia method, 12 rabbits with a basic sensitivity threshold (sensitivity threshold of the eye cornea to tactile impact of the anesthesiometer) of 1–2 touches were selected. They were used in experiments repeatedly with an interval of at least 5 days between the experiments. Each eye was considered as a separate experimental point. Three animals were used in each of the experimental groups (n = 6). Two animals (n = 4) were used in each of the negative control groups and in each of experimental groups with UV irradiation due to the expected lack of the effect and to minimize the number of animals in the experiment. Animals were randomly divided into groups. Before an experiment, the animals were immobilized, leaving the head free. Before each experiment, the animals’ eyelashes were cut out, and the basic threshold of sensitivity of the eye cornea to tactile contact was determined using an anesthesiometer.
The irradiation modes were described earlier. Experiments with animals were carried out in a darkened room with a 50W LED light source (λ = 625 nm), which lies outside the absorption bands of the UV/Vis spectrum of the test compound. Before the experiments, solutions of test compounds were irradiated for 5 min with UV light (λ = 365 nm, LED flashlight, 0.5 W).
The adaptation of a model of surface anesthesia on the rabbit’s cornea using the Regnier method for the study of light-controlled local anesthetics was described earlier. The test solution (0.2 mL) of the required concentration (2% for the lidocaine or 1% for the ethercaine and its derivatives) was instilled into each conjunctival sac. After that, the sensitivity threshold of the eye cornea to tactile impact was determined. The first determination was performed at the 8th minute of the experiment and then at the 10th, 12th, 15th, 20th, 25th, 30th, 35th, 40th, 45th, 50th, 55th, and 60th min (13 values overall). […]

[3] = tested on: human dermal fibroblasts (DF2); test: In vitro cytotoxicity, MTT test, 24 h incubation; format: cell-based
Method: as §1

Structure (SMILES) | IC50 at 24 h [1] [µM] | τ1/2 (DMSO), Z-E isomerization half-life [2] [h] | τ1/2 (Aqueous Kolliphor ELP), Z-E isomerization half-life [2] [h] | Decrease in Regnier index under UV light irradiation (365 nm) versus darkness (rabbit eye cornea; dark vs 365 nm) [fold] | pIC50 [3] | Local Anesthetic Activity (Regnier Index, Min—13, Max—1300) In the Dark (rabbit eye cornea) | Local Anesthetic Activity (Regnier Index, Min—13, Max—1300) Under Irradiation (λ = 365 nm) (rabbit eye cornea) | τ1/2 (Aqueous Kolliphor ELP column), Z-E isomerization half-life ([2]; value obtained for the solution in water) [h]
Cc1cnc(/N=N/c2ccc(OCCN3CCOCC3)cc2)s1 [Compound 25b, 2-(4-(2-(N-morpholino)-ethoxy)-phenylazo)-5-methylthiazole hydrochloride] | 440 | 0.083 | 0.067 | – | – | – | – | –
CCN(CC)CCOc1ccc(N=Nc2ccccc2)cc1.Cl [Compound 16, 4-(2-(N,N-Diethylamino)Ethoxy)Azobenzene Hydrochloride] | 90 | 15.6 | 6.0 | – | – | – | – | –
c1ccc(/N=N/c2ccc(OCCN3CCOCC3)cc2)cc1 [Compound 1, Ethercaine hydrochloride] | 210 | 2.1 | 0.833 | 19 | – | – | – | –
Cl.Fc1ccccc1N=Nc1c(F)cc(OCCN2CCOCC2)cc1F [Compound 20e, 2,2′,6-trifluoro-4-(2-(N-morpholino)-ethoxy)-azobenzene hydrochloride] | – | 703 | 60 | – | 3.72 | 395 ± 72 (n = 6) | 59 ± 18 (n = 4) | –
CN1CCN(CCOc2ccc(/N=N/c3ccccc3)cc2)CC1 [Compound 14, 4-(2-(4-Methyl-1-Piperazino)-Ethoxy)-Azobenzene Dihydrochloride] | 60 | 18.6 | – | – | – | – | – | 3.5
Cl.Fc1ccccc1N=Nc1ccc(OCCN2CCOCC2)cc1F [Compound 20d, 2,2′-difluoro-4-(2-(N-morpholino)-ethoxy)-azobenzene hydrochloride] | – | 8.1 | 2.3 | – | 3.72 | 419 ± 57 (n = 6) | 84 ± 8 (n = 4) | –
c1ccc(/N=N/c2cccc(OCCN3CCOCC3)c2)cc1 [Compound 9b, 3-(2-(N-morpholino)-ethoxy)-azobenzene hydrochloride] | 240 | 26.8 | 437 | – | – | – | – | –
Cl.Fc1cccc(F)c1N=Nc1c(F)cc(OCCN2CCOCC2)cc1F [Compound 20h, 2,2′,6,6′-tetrafluoro-4-(2-(N-morpholino)-ethoxy)-azobenzene hydrochloride] | – | 1190 | 281 | – | 3.36 | 353 ± 10 (n = 6) | 35 ± 7 (n = 4) | –
Cl.Fc1cccc(F)c1N=Nc1ccc(OCCN2CCOCC2)cc1 [Compound 20f, 2′,6′-difluoro-4-(2-(N-morpholino)-ethoxy)-azobenzene hydrochloride] | – | 24 | 1.0 | – | 3.68 | 570 ± 87 (n = 6) | 76 ± 19 (n = 4) | –
Cl.Fc1cc(OCCN2CCOCC2)ccc1N=Nc1c(F)cccc1F [Compound 20g, 2,2′,6′-trifluoro-4-(2-(N-morpholino)-ethoxy)-azobenzene hydrochloride] | – | 137 | 5.0 | – | 3.74 | 437 ± 37 (n = 6) | 45 ± 9 (n = 4) | –
Cl.Fc1cc(OCCN2CCOCC2)ccc1N=Nc1ccccc1 [Compound 20a, 2-fluoro-4-(2-(N-morpholino)-ethoxy)-azobenzene hydrochloride] | – | 7.8 | 2.5 | – | 3.72 | 509 ± 34 (n = 6) | 64 ± 15 (n = 4) | –
Cl.Fc1cc(OCCN2CCOCC2)cc(F)c1N=Nc1ccccc1 [Compound 20b, 2,6-difluoro-4-(2-(N-morpholino)-ethoxy)-azobenzene hydrochloride] | – | 456 | 1.9 | – | 3.74 | 538 ± 37 (n = 6) | 58 ± 8 (n = 4) | –
c1ccc(/N=N/c2ccccc2OCCN2CCOCC2)cc1 [Compound 9a, 2-(2-(N-morpholino)-ethoxy)-azobenzene hydrochloride] | > 1000 | 17.2 | 125 | – | – | – | – | –
